Source: paper PMC10283052, “Intranasal delivery of mitochondrial protein humanin rescues cell death and promotes mitochondrial function in Parkinson's disease” (Theranostics, 2023)

Assays:
[1] = system: mtDNA-depleted (Rho^0) SH-SY5Y cells; assay: Humanin induction in mtDNA-depleted Rho0 cells (PCR, western blot); assay type: cell-based, human; conditions: Rho0 cells devoid of mtDNA; HN 20 μM, 24 h; conventional PCR and western blot
Procedure: For generating SH-SY5Y Rho^0 cells depleted of mitochondrial DNA, we treated the cells with ethidium bromide (0.5 μg/ml) (Sigma-Aldrich) for 2 months as described previously. SH-SY5Y Rho^0 cells were grown in the same culture medium but supplemented with an additional 50 μg/ml of uridine and 100 μg/ml of pyruvate to support cell growth.
(§1) Mouse brain tissue samples and cells were homogenized in radioimmunoprecipitation assay (RIPA) buffer (Cell Signaling, Danvers, MA, USA) in the presence of a protease and phosphatase inhibitor cocktail (Thermo Fisher Scientific). The samples were sonicated on ice, and the supernatant was collected after centrifugation at 4°C at 10,000 g for 5 min. The protein samples were loaded and separated using Tris-glycine SDS-PAGE. To detect the HN peptide, the proteins were separated into three layers of tricine SDS-PAGE, as previously described. The separated proteins were transferred to nitrocellulose membranes (GenDEPOT, Barker, TX, USA). The membranes were blocked for 0.5 h, followed by incubation with appropriate primary antibodies overnight at 4°C. […] The results were analyzed using the ImageJ densitometry system. […]
The loss of mtDNA in SH-SY5Y Rho^0 cells was determined by standard PCR with three pairs of primers (Table S1), two specifically for mtDNA (mt-ND4, humanin) and one specifically for nuclear DNA (ATP5PB). […]

[2] = system: differentiated PC12 cells exposed to MPP^+; assay: Intracellular humanin in MPP+-exposed differentiated PC12 cells, western blot; assay type: cell-based, rat; conditions: HN treatment, MPP+ exposure
Procedure: For neuronal differentiation of PC12 cells, the cells were grown in DMEM containing 1.5% horse serum, 1.5% FBS, 1% P/S, and 100 ng/mL nerve growth factor (NGF, Thermo Fisher Scientific) every 2 days. PC12 cells were differentiated for 7 days and used for subsequent experiments.
as §1, with “4°C. The primary antibodies used were as follows: anti-tyrosine hydroxylase (Cat # P40101, Pel-Freez Biologicals), anti-HN (Cat # RA19000, Neuromics), anti-β-actin (Cat # GTX109639, GeneTex, Irvine, CA, USA), and anti-GAPDH (Cat # AM4300, Thermo Fisher Scientific).” for “4°C.”

MPTP mouse model of PD = assay: MPTP mouse model of PD, intranasal HN; assay type: in vivo; conditions: intranasal HN 0.1 and 5 mg/kg
Procedure: (§2) A mouse model of PD was generated using the neurotoxin MPTP-HCl (Sigma-Aldrich, St. Louis, MO, USA), as previously described. Seven- to eight-week-old male C57BL/6J mice were injected with MPTP (20 mg/kg/day) for five consecutive days for the subacute delivery of MPTP. The mice in the control group received the same volume of phosphate buffer saline (PBS).
(§3) For intranasal HN treatment, the synthetic HN peptide was delivered according to a procedure reported by Capsoni et al. The synthetic HN peptide was diluted in ddH2O to a concentration of 0.1 and 5 mg/kg for mice (total volume of 40 μL) at 37 ℃ with mild stirring. The mice were held firmly in one hand in a supine position with their head at 90°. Synthetic HN was administered in the form of 5-μL drops over 20 min in alternating nostrils every 3 min. After administration, the heads of the mice were held in the same position to prevent loss of the applied solution from the nares.
To stain the mouse brain tissue samples, transcardial perfusion was performed using PBS and 4% paraformaldehyde in PBS. The brain and trigeminal ganglia were removed, post-fixed using 4% paraformaldehyde in PBS, and stored in a 30% sucrose solution at 4 ℃ until they sank. Coronal sections were prepared (thickness: 10 µm) using a sliding microtome. After blocking with 5% BSA, the samples were incubated with the appropriate primary antibody as mentioned above. After incubation with the primary antibodies, the tissue samples were incubated with Alexa Fluor 594- or 488-conjugated antibodies (Thermo Fisher Scientific) for immunofluorescence or with secondary biotinylated anti-rabbit IgG (H+L) (Vector Laboratories, Burlingame, CA, USA) for immunohistochemistry. […] Mitochondrial network morphology was further assessed using the FIJI/ImageJ software as described previously.
(§4) Mouse brain tissue samples and cells were homogenized in radioimmunoprecipitation assay (RIPA) buffer (Cell Signaling, Danvers, MA, USA) in the presence of a protease and phosphatase inhibitor cocktail (Thermo Fisher Scientific). […] The results were analyzed using the ImageJ densitometry system. […]

JNK, p38 MAPK, AKT, ERK = assay: Signaling kinase activation in striatum of MPTP mice, western blot; assay type: in vivo, mouse; conditions: MPTP PD mice, intranasal HN 0.1 and 5 mg/kg
Procedure: as §2, §3
as §4, with “Scientific). The samples were sonicated on ice, and the supernatant was collected after centrifugation at 4°C at 10,000 g for 5 min.” for “Scientific).”

humanin (MAPRGFSCLLLLTSEIDLPVKRRA; Humanin; UniProt Q8IVG9 1-24, looked up) [HN, mitochondria-derived peptide encoded by the mitochondrial genome, synthesized by Fmoc-based SPPS at GL Biochem]
induction of intracellular humanin by HN peptide [1]: abolished
intracellular humanin [2]: upregulated intracellular humanin
motor function, pole test (MPTP mouse model of PD; MPTP 20 mg/kg/day for 5 days): steady motor improvements in a dose-dependent manner
TH expression, dopaminergic neurons of substantia nigra pars compacta (MPTP mouse model of PD; dose-dependent, TH staining, stereology): significantly restored TH expression
TH protein in striatum lysates, western blot (MPTP mouse model of PD; three independent blots): confirmed the impact of intranasal delivery of HN on protecting TH^+ dopaminergic neurons
activation of JNK and p38 MAPK in striatum (JNK, p38 MAPK, AKT, ERK): inhibited the activation of JNK and p38 MAPK
activation of AKT and ERK in brain tissue (JNK, p38 MAPK, AKT, ERK; dose-dependent): promoted the activation of AKT and ERK
